Earlier results, collected in patent US6670356B2, “Analogs of galanthamine and lycoramine as modulators of nicotinic receptors” (priority 1999, dated 2003).

Columns and labels:
[1] = tested on: nicotinic receptors of PC12 cells
[2] = tested on: superior cervical ganglion; details: cat

| SMILES | Whole-cell currents evoked ([1]; PC12 cells) | Mode of action at nicotinic receptors ([1]; PC12 cells) | Single channel activity after incubation with FK1 (competitive monoclonal antibody to physostigmine) ([1]; PC12 cells) | Channel activation ([1]; inside-out patches from PC 12 cells) | Preservation of the ganglionic surface potential ([2]; direct recordings, treated ganglia) | Inhibition of hexamethonium (C6) induced ganglionic blockade ([2]; intra-arterially, 250 micrograms) | Twitch potentiating effects relative to neostigmine or physostigmine (gastrocnemius; nerve muscle preparation, quoted from the cited authors' discussion) | Twitch potentiation relative to neostigmine or physostigmine (gastrocnemius; quoted from the cited authors) | Anticholinesterase activity relative to neostigmine or physostigmine (cholinesterase; quoted from the cited authors' discussion) | IC 50 for cholinesterase inhibition, times lower than for galanthamine (cholinesterase; rat brain, erythrocytes, or gastrocnemius homogenate) [times lower] |
| --- | --- | --- | --- | --- | --- | --- | --- | --- | --- | --- |
| COc1ccc2c3c1O[C@H]1[C@@H](O)C=C[C@H]4[C@@H](C2)N(C)CC[C@@]341 [codeine] | do not evoke sizable whole-cell currents |  |  |  |  |  |  |  |  |  |
| COc1ccc2c3c1O[C@H]1C[C@@H](O)C=C[C@@]31CCN(C)C2 [galanthamine] | do not evoke sizable whole-cell currents | noncompetitive agonists | neither physostigmine nor galanthamine could induce | cause some channel activation | preservation of the surface potential is shown | substantially inhibited | 1/10 | 1/10 | 1/100 |  |
| CN(C)C(=O)Oc1cccc([N+](C)(C)C)c1 [neostigmine] |  |  |  |  |  |  |  |  |  | ~200 |
